Reference: US20120276560A1, “BIOMARKERS FOR ASSESSING SIALIC ACID DEFICIENCIES” (priority 2010, published 2012)

Experiments:
[1] = system: Gne^−/− hGNED176V-Tg mice; conditions: administration in water; Malicdan et al. 2009; cited from earlier work
PSA-NCAM [2] = assay: Western blot of serum PSA-NCAM (RNL-1 antibody) in HIBM patient on ManNAc; type: in vivo, human; conditions: serum of ManNAc self-treated HIBM patient (2 years), FIG. 3 lane 7
Experimental: (§1) Serum samples from normal individuals, HIBM patients before treatment, patients suffering from myopathy but not HIBM, and a HIBM patient on ManNAc therapy for 2 years were purified to reduce serum proteins. The samples were subjected to SDS PAGE and stained with a monoclonal antibody to NCAM (RNL-1, SantaCruz Biotech, Inc., CA) capable of detecting sialylated and unsialylated forms of NCAM (FIGS. 2 and 3). As a control, serum samples from healthy individuals were prepared as described above and treated with sialidase to remove sialic acid.
(§2) For Western blotting, serum protein was extracted from 50 ul serum samples using Mem-PER® Eukaryotic Membrane Protein Extraction Reagent Kit (Thermo Scientific), then the hydrophilic (top) layer was cleaned and purified by SDS-PAGE Sample Prep Kit (Thermo Scientific). Final protein concentration was measured by BradfordUltra (Expedeon), and […] protein (15 uL) loaded per lane for electrophoresis separation. […] Primary (RNL-1, SantaCruz Biotech, Inc., CA) and secondary antibodies were applied, and detected using horseradish peroxidase (HRP) chemi-luminescence substrate (FIG. 3). […]
(§3) For desialylated control sample, serum protein from healthy non-myopathic individuals was treated with Vibrio cholerae neuroaminidase (Sigma) (FIG. 3, lane 8). HIBM patients who were routinely ingesting N-Acetylmannosamine (ManNAc) were analyzed as well (FIG. 3, lane 7).

[3] = system: mice homozygous for the M712T Gne mutation; conditions: ManNAc in water to mutant mice; Galeano et al. 2007; cited from earlier work
PSA-NCAM [4] = assay: Neuraminidase digestion of normal human serum, Western blot with 123C3 antibody; type: biochemical; conditions: 37° C. 4 hours, 1 m unit enzyme per 3 μg protein, FIG. 4A lane 2, estimated
Experimental: Experiments were performed to determine whether PSA-NCAM can be detected in human serum using well-defined mouse monoclonal antibodies raised against human PSA-NCAM (123C3). Human serum was purified by Aurum serum protein kit (Bio-Rad) to remove albumin and IgG which can interfere with SDS-PAGE analysis. Raw serum was diluted 4 times with protein binding buffer (supplied in the kit) and applied to the column. The albumin/IgG depleted serum was eluted by centrifugation at 10,000 g for 20 seconds and protein concentration was determined by modified Lowry assay (Bio-Rad DC protein assay).
Purified serum was incubated in neuraminidase from Vibrio cholera (Sigma) at 37° C. for 4 hours in order to cleave sialic acid (SA) from serum polysialic acid-glycoproteins, including PSA-NCAM. Digestion was carried out at a concentration of 1 m unit enzyme per 3 μg of protein in 20 mM Tris buffer, pH 5.8. A negative control was included in the experiment under the same condition but without adding the neuraminidase. At the end of incubation, the mixture was cleaned up with micro bio-spin P30 columns (BioRad).
Proteins were analyzed on 10% denaturing Tris-glycine SDS-PAGE gel (Invitrogen) under reducing condition. […]

PSA-NCAM [5] = assay: Neuraminidase digestion of normal human serum, Western blot with C-20 polyclonal antibody; type: biochemical; conditions: 37° C. 4 hours, 0.35 m unit enzyme per μl serum, FIG. 5 lane 5
Experimental: Experiments were performed to investigate the pattern of serum PSA-NCAM sialylation between normal controls and HIBM patients using a polyclonal antibody raised against human PSA-NCAM. Human serum was purified by a two-steps protocol to enrich PSA-NCAM. Raw sera from both normal human and HIBM patient were extracted by Mem-PER® membrane protein extraction kit (Thermo Scientific) according to the manufacturer's protocol. Serum was first mixed with a detergent and then a second detergent was added to solubilize membrane proteins. After centrifugation at 10,000 g for 3 minutes, the mixture was incubated at 37° C. to separate hydrophobic proteins from hydrophilic proteins through phase partitioning. The top hydrophilic layer was then further purified by SDS-PAGE sample prep kit (Thermo Scientific) to remove detergents and other contaminants that interfere with SDS-PAGE analysis.
Purified serum was incubated with Vibrio cholera neuraminidase (Sigma) at 37° C. for 4 hours in order to cleave sialic acid (SA) from serum polysialic acid-glycoproteins, including PSA-NCAM. Digestion was carried out at a concentration of 0.35 m unit enzyme per μl of serum. […]
Proteins were analyzed on a 10% Mini-Protean precast gel (BioRad) under reducing condition with 5% 2-mercaptoethanol. Final protein concentration was measured by Bradford Ultra (Expedeon). […]

PSA-NCAM [6] = assay: Sialidase treatment of normal human serum, Western blot with RNL-1 antibody; type: biochemical; conditions: normal human serum treated with sialidase
Experimental: as §1, §2, §3

Molecule: CC(=O)N[C@@H]1C(O)O[C@H](CO)[C@@H](O)[C@@H]1O (some centres unmarked) [ManNAc, N-acetylmannosamine]
- muscle atrophy and weakness [1]: reduced or prevented
- PSA-NCAM signal at ˜150 kD band on Western blot (PSA-NCAM [2]): improved signal
- renal histology (podocyte foot processes) [3]: improved renal histology
- sialylation of brain PSA-NCAM [3]: increased sialylation of brain PSA-NCAM
- sialylation of renal podocalyxin [3]: increased sialylation of renal podocalyxin
- survival [3]: improved survival

Molecule: CC(=O)N[C@H]1[C@H]([C@H](O)[C@H](O)CO)OC(O)(C(=O)O)C[C@@H]1O (some centres unmarked) [sialic acid, 5-N-acetylneuraminic acid]
- muscle atrophy and weakness [1]: reduced or prevented

Molecule: neuraminidase: neuraminidase from Vibrio cholera (Sigma), used to cleave sialic acid from serum glycoproteins
- reduction of molecular weight of the PSA-NCAM triplet (PSA-NCAM [4]): 10-15 kDa
- intensity of the 130 kDa and 60 kDa PSA-NCAM bands (PSA-NCAM [5]): significantly reduced in intensity
- upper and middle PSA-NCAM bands on Western blot (PSA-NCAM [6]): disappeared

Molecule: sialyl-lactose
- muscle atrophy and weakness [1]: reduced or prevented
